# Test results reported in the supplement of paper PMC4862054.
# Tests used:
# Test in all cases: normalised viability (% of control), CellTiter-Blue; higher = more viable cells (about 100 = DMSO control)
# Settings in all cases: incubation time: 72 h
# [1] = tested on: HCC1599
# How it was run: (§1)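 Vehicle (100) and a positive kill control (0) anchored the normalisation of each plate, and Z'-factor was used for quality control. Breast cancer cell lines in 20 µl suspension were incubated 72 h over compound in 5 µl medium in 384-well plates, followed by CellTiter-Blue at 560/590 nm. The value is normalised viability at a single listed concentration of the series.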
# [2] = tested on: HCC1143
# How it was run: as §1
# [3] = tested on: HDQ-P1
# How it was run: as §1
# [4] = tested on: BT-549
# How it was run: as §1
# [5] = tested on: MDA-MB-468
# How it was run: as §1
# [6] = tested on: CAL-51
# How it was run: as §1
# [7] = tested on: SK-BR-3
# How it was run: as §1
# [8] = tested on: CAL-85-1
# How it was run: as §1
# [9] = tested on: MDA-MB-231
# How it was run: as §1
# [10] = tested on: HCC1937
# How it was run: as §1
# [11] = tested on: MFM-223
# How it was run: as §1
# [12] = tested on: MDA-MB-453
# How it was run: as §1
# [13] = tested on: MDA-MB-436
# How it was run: as §1
# [14] = tested on: Hs578T
# How it was run: as §1
# [15] = tested on: CAL-120
# How it was run: as §1
# [16] = tested on: DU-4475
# Experimental: (§2)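 DSRT, CellTiter-Blue viability, 72 h incubation. Signal is normalised to DMSO and benzethonium chloride controls. Value is the normalised response at dose 7.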
# [17] = tested on: HDQ-P1; remark: listed apart in the source
# Experimental: as §2
# [18] = tested on: CAL-148
# Experimental: as §2
# [19] = tested on: CAL-51; remark: listed apart in the source
# Experimental: as §2
# [20] = tested on: CAL-85-1; remark: listed apart in the source
# Experimental: as §2
# [21] = tested on: MDA-MB-453; remark: listed apart in the source
# Experimental: as §2
# [22] = tested on: HCC1599; remark: listed apart in the source
# How it was run: as §1
# [23] = tested on: DU-4475; remark: listed apart in the source
# How it was run: as §1
# [24] = tested on: HDQ-P1; remark: listed apart in the source
# How it was run: as §1
# [25] = tested on: BT-549; remark: listed apart in the source
# How it was run: as §1
# [26] = tested on: MDA-MB-468; remark: listed apart in the source
# How it was run: as §1
# [27] = tested on: CAL-148; remark: listed apart in the source
# How it was run: as §1
# [28] = tested on: CAL-51; remark: listed apart in the source
# How it was run: as §1
# [29] = tested on: BT-474
# How it was run: as §1
# [30] = tested on: CAL-85-1; remark: listed apart in the source
# How it was run: as §1
# [31] = tested on: MDA-MB-231; remark: listed apart in the source
# How it was run: as §1
# [32] = tested on: HCC1937; remark: listed apart in the source
# How it was run: as §1
# [33] = tested on: MDA-MB-436; remark: listed apart in the source
# How it was run: as §1
# [34] = tested on: Hs578T; remark: listed apart in the source
# How it was run: as §1
compound,measurement,setting,value
C/C(=C\c1csc(C)n1)[C@@H]1C[C@@H]2O[C@]2(C)CCC[C@H](C)[C@H](O)[C@@H](C)C(=O)C(C)(C)[C@@H](O)CC(=O)O1 [Patupilone],normalised viability,[1]; 1 nM,108%
same,normalised viability,[2]; 1 nM,91.6%
same,normalised viability,[3]; 0.3 nM,107%
same,normalised viability,[4]; 1 nM,106%
same,normalised viability,[5]; 1 nM,96%
same,normalised viability,[6]; 0.3 nM,106%
same,normalised viability,[7]; 1 nM,112%
same,normalised viability,[8]; 0.3 nM,95.2%
same,normalised viability,[9]; 1 nM,59.6%
same,normalised viability,[10]; 1 nM,79.4%
same,normalised viability,[11]; 1 nM,105%
same,normalised viability,[12]; 0.3 nM,114%
same,normalised viability,[13]; 1 nM,86.8%
same,normalised viability,[14]; 1 nM,102%
same,normalised viability,[15]; 1 nM,109%
same,normalised viability,[16]; 100 nM,7.8%
same,normalised viability,[17]; 100 nM,41.5%
same,normalised viability,[18]; 100 nM,17.9%
same,normalised viability,[19]; 100 nM,12.2%
same,normalised viability,[20]; 100 nM,28.6%
same,normalised viability,[21]; 100 nM,20.4%
same,normalised viability,[22]; 1000 nM,79.3%
same,normalised viability,[23]; 10 nM,57.5%
same,normalised viability,[24]; 10 nM,92.5%
same,normalised viability,[25]; 1000 nM,22.1%
same,normalised viability,[26]; 1000 nM,54.8%
same,normalised viability,[27]; 10 nM,32.3%
same,normalised viability,[28]; 10 nM,59.1%
same,normalised viability,[29]; 1000 nM,25.4%
same,normalised viability,[30]; 10 nM,33.9%
same,normalised viability,[31]; 1000 nM,30.7%
same,normalised viability,[32]; 1000 nM,20.4%
same,normalised viability,[33]; 1000 nM,40.1%
same,normalised viability,[34]; 1000 nM,13.2%
CNNCc1ccc(C(=O)NC(C)C)cc1 [Procarbazine],normalised viability,[1]; 10 nM,97.4%
same,normalised viability,[2]; 10 nM,93.1%
same,normalised viability,[3]; 3 nM,146%
same,normalised viability,[4]; 10 nM,111%
same,normalised viability,[5]; 10 nM,105%
same,normalised viability,[6]; 3 nM,107%
same,normalised viability,[7]; 10 nM,110%
same,normalised viability,[8]; 3 nM,95.6%
same,normalised viability,[9]; 10 nM,109%
same,normalised viability,[10]; 10 nM,87%
same,normalised viability,[11]; 10 nM,98.4%
same,normalised viability,[12]; 3 nM,114%
same,normalised viability,[13]; 10 nM,97%
same,normalised viability,[14]; 10 nM,105%
same,normalised viability,[15]; 10 nM,104%
same,normalised viability,[16]; 1000 nM,105%
same,normalised viability,[17]; 1000 nM,95.7%
same,normalised viability,[18]; 1000 nM,87.9%
same,normalised viability,[19]; 1000 nM,100%
same,normalised viability,[20]; 1000 nM,89.2%
same,normalised viability,[21]; 1000 nM,113%
same,normalised viability,[22]; 10000 nM,90%
same,normalised viability,[23]; 100 nM,91.3%
same,normalised viability,[24]; 100 nM,109%
same,normalised viability,[25]; 10000 nM,89.5%
same,normalised viability,[26]; 10000 nM,112%
same,normalised viability,[27]; 100 nM,99%
same,normalised viability,[28]; 100 nM,96.4%
same,normalised viability,[29]; 10000 nM,113%
same,normalised viability,[30]; 100 nM,89.2%
same,normalised viability,[31]; 10000 nM,109%
same,normalised viability,[32]; 10000 nM,81.7%
same,normalised viability,[33]; 10000 nM,81.5%
same,normalised viability,[34]; 10000 nM,114%
CN(C)C[C@@H]1CCn2cc(c3ccccc32)C2=C(C(=O)NC2=O)c2cn(c3ccccc23)CCO1 [Ruboxistaurin],normalised viability,[1]; 10 nM,109%
same,normalised viability,[2]; 10 nM,135%
same,normalised viability,[3]; 3 nM,79.3%
same,normalised viability,[4]; 10 nM,85.2%
same,normalised viability,[5]; 10 nM,94.5%
same,normalised viability,[6]; 3 nM,98.6%
same,normalised viability,[7]; 10 nM,101%
same,normalised viability,[8]; 3 nM,105%
same,normalised viability,[9]; 10 nM,95%
same,normalised viability,[10]; 10 nM,44.5%
same,normalised viability,[11]; 10 nM,97.6%
same,normalised viability,[12]; 3 nM,94.7%
same,normalised viability,[13]; 10 nM,94.1%
same,normalised viability,[14]; 10 nM,96.4%
same,normalised viability,[15]; 10 nM,108%
same,normalised viability,[16]; 1000 nM,73.9%
same,normalised viability,[17]; 1000 nM,67.1%
same,normalised viability,[18]; 1000 nM,101%
same,normalised viability,[19]; 1000 nM,76.8%
same,normalised viability,[20]; 1000 nM,122%
same,normalised viability,[21]; 1000 nM,102%
same,normalised viability,[22]; 10000 nM,58.1%
same,normalised viability,[23]; 100 nM,95.6%
same,normalised viability,[24]; 100 nM,83.1%
same,normalised viability,[25]; 10000 nM,43.7%
same,normalised viability,[26]; 10000 nM,8.88%
same,normalised viability,[27]; 100 nM,111%
same,normalised viability,[28]; 100 nM,88.8%
same,normalised viability,[29]; 10000 nM,3.5%
same,normalised viability,[30]; 100 nM,115%
same,normalised viability,[31]; 10000 nM,27.6%
same,normalised viability,[32]; 10000 nM,35.1%
same,normalised viability,[33]; 10000 nM,29.2%
same,normalised viability,[34]; 10000 nM,42.9%
CN1CCN(CCOc2cc(OC3CCOCC3)c3c(Nc4c(Cl)ccc5c4OCO5)ncnc3c2)CC1 [Saracatinib],normalised viability,[1]; 10 nM,86.7%
same,normalised viability,[2]; 10 nM,88%
same,normalised viability,[3]; 3 nM,118%
same,normalised viability,[4]; 10 nM,94.2%
same,normalised viability,[5]; 10 nM,108%
same,normalised viability,[6]; 3 nM,107%
same,normalised viability,[7]; 10 nM,99.6%
same,normalised viability,[8]; 3 nM,85.5%
same,normalised viability,[9]; 10 nM,80.7%
same,normalised viability,[10]; 10 nM,107%
same,normalised viability,[11]; 10 nM,104%
same,normalised viability,[12]; 3 nM,119%
same,normalised viability,[13]; 10 nM,116%
same,normalised viability,[14]; 10 nM,102%
same,normalised viability,[15]; 10 nM,87.6%
same,normalised viability,[16]; 1000 nM,102%
same,normalised viability,[17]; 1000 nM,40.6%
same,normalised viability,[18]; 1000 nM,83.9%
same,normalised viability,[19]; 1000 nM,60.9%
same,normalised viability,[20]; 1000 nM,51.4%
same,normalised viability,[21]; 1000 nM,86.5%
same,normalised viability,[22]; 10000 nM,83.7%
same,normalised viability,[23]; 100 nM,98.9%
same,normalised viability,[24]; 100 nM,111%
same,normalised viability,[25]; 10000 nM,47.4%
same,normalised viability,[26]; 10000 nM,57.8%
same,normalised viability,[27]; 100 nM,85.3%
same,normalised viability,[28]; 100 nM,99.1%
same,normalised viability,[29]; 10000 nM,42.4%
same,normalised viability,[30]; 100 nM,98%
same,normalised viability,[31]; 10000 nM,60.6%
same,normalised viability,[32]; 10000 nM,116%
same,normalised viability,[33]; 10000 nM,72.1%
same,normalised viability,[34]; 10000 nM,69.7%
